Here are results for one compound from EP0535626A1, “Use of 4-amino-1-(2-pyridyl)piperidines as anti-convulsivant and anti-epileptic agents” (SANOFI, priority 1991, dated 1993).

For assay [1], the system named is convulsions provoquées par le pentylénététrazole. The assay is described as follows: Pentylenetetrazole-induced convulsions test in mice. It is filed as in vivo, souris. The note with it: Mus musculus, ip, 0.5 h; Swiss female mice, intraperitoneal 30 minutes before 130 mg/kg pentylénététrazole intraperitoneal; read-out: DE₅₀ (doses protégeant 50% des animaux). The text has this: (§1) La nouvelle activité anticonvulsivante des composés de formule (I), a été mise en évidence en évaluant les effets des composés (I) dans le test des convulsions provoquées par électrochoc chez la souris et dans le test des convulsions provoquées par le pentylénététrazole chez la souris selon la méthode décrite par C.S. Goodman, M. Singh Grewal, W.C. Brown et E.A. Swinyard dans J. Pharmacol. Exp. Ther. 108, 168-176, (1953).
(§2) Pour ces tests on a utilisé des souris Swiss femelles d'un poids corporel de 22 à 26 g, réparties en lot de 10 animaux chacun. Une semaine avant l'expérimentation, chaque lot de 10 a été mis en cage, gardé dans une pièce à température constante (21°C ± 1°C), en cycle jour/nuit, avec nourriture et boisson à volonté. Les produits de formule (I) à tester ainsi que le pentylénététrazole ont été mis en solution dans de l'eau distillée. Le volume d'injection des produits utilisés a été de 0,4 ml pour 20 g de poids corporel. • · Convulsions provoquées par le pentylénététrazole. Les composés de formule (I) ont été administrés par voie intrapéritonéale 30 minutes avant l'administration par voie intrapéritonéale de 130 mg/kg de pentylénététrazole (dose nécessaire pour que 80% des souris contrôlées présentent une crise convulsive). […]

Assay [2] deals with convulsions provoquées par électrochoc. The assay is described as follows: Electroshock-induced convulsions test in mice. The class given is in vivo, souris. The conditions noted are these: Mus musculus, ip, 0.5 h; Swiss female mice, intraperitoneal 30 minutes before the shock (12 volts, 0,4 secondes, corneal electrodes); read-out: DE₅₀ (doses protégeant 50% des animaux).
Source text: as §1, §2

Structures are written as SMILES. A value given as a limit tells only on which side of the number the result lay.

Take `NC1CCN(c2cccc(Cl)n2)CC1` [4-amino-1-(6-chloro-2-pyridyl)pipéridine]: the ED50 is under 10 mg/kg in assay [1] and under 3 mg/kg in assay [2].
